“Also recorded” adds a separate entry of the source.
Legend:
[1] = tested on: Lactobacillus GP15 (production host); test: Activity against own production host; type: cell-based, Lactobacillus plantarum
From the text: As noted above, GP-15cin may be applied alone or in combination with other bacteriocin and/or bacteriophage virulent for unwanted bacteria in the same system. Bacteriocin producing hosts are immune to the bacteriocins produced by themselves. GP-15cin is therefore not active against its own production host, […]. […] Therefore it is desirable to combine GP-15cin with a different bacteriocin in a cocktail that will kill the bacteria insensitive to GP15cin. Additionally GP-15cin may be combined with other antimicrobial agents to broaden the scope of effectiveness against the range of unwanted bacteria that are targeted. For example the combination of bacteriocin and bacteriophage (phage) ensures a broader inhibition spectrum and more efficient control of the bacteria contamination. Phage targeting these non-sensitive strains can be isolated, and be combined with the bacteriocin for a complete control of contaminating bacteria.

[2] = tested on: LAB isolates from commercial ethanol plants (multiple species of Lactobacillus, Lactococcus, Weissella, Leuconostoc, Pediococcus, Enterococcus, and …); test: Inhibitory activity spectrum: culture supernatant spotted onto indicator bacterial lawns; type: cell-based, lactic acid bacteria
Description: (§1) FIG. 1 is a schematic representation of the proteins responsible for producing the bacteriocin of the invention. In the discovery of the unique broad spectrum bacteriocin of this invention, indigenous LAB were isolated and purified from the fermentation mash of the commercial ethanol fermentation plants. The identities of the isolates were determined to the species level based on their 16s rDNA sequences. The capability of the isolated LAB strains to produce antimicrobial compounds was identified. Culture supernatants of the strains to be tested were spotted onto individual indicator bacterial culture lawns, which were prepared using a variety of LAB strains of different genera. […] Any positive activity of bacterial growth inhibition from the tested culture supernatant was confirmed again in the same manner, and the inhibitory activity spectrum of the antimicrobial compound is determined. […]
(§2) FIG. 1 is a schematic representation of the proteins responsible for producing the bacteriocin of the invention. The inhibitory activity spectrum of GP15cin against different strains was determined. The active concentration range and the minimum inhibition concentration of the bacteriocin are determined using different indicator strains. The activity levels of the bacteriocin present in the raw bacterial culture supernatants and/or in partially purified mixtures were also determined. […]

[3] = Stability of bacteriocin activity at different temperatures and pH values; type: physicochemical
From the text: FIG. 1 is a schematic representation of the proteins responsible for producing the bacteriocin of the invention. Either using crude, partially or completely purified form, the chemical characteristics of the bacteriocins can be determined. The determined characteristics include their sensitivities to different enzymes, stability at different temperatures and pH values, etc. Sensitivity of the bacteriocin to proteolytic and lipolytic enzymes, such as trypsin, pepsin, pronase, lipase, etc, was tested. The proteinaceus nature of GP15cin was confirmed. […] The same bacteriocin has optimal activity in the pH range of 4-10.

[4] = tested on: indigenous contaminating bacteria in fermentation mash from commercial ethanol plants; test: Reduction of indigenous contaminating bacterial levels in ethanol fermentation mash; type: cell-based; settings: crude form
Description: FIG. 1 is a schematic representation of the proteins responsible for producing the bacteriocin of the invention. The inhibitory activity spectrum of GP15cin against different strains was determined. The active concentration range and the minimum inhibition concentration of the bacteriocin are determined using different indicator strains. The activity levels of the bacteriocin present in the raw bacterial culture supernatants and/or in partially purified mixtures were also determined. […] FIG. 2 to FIG. 11 show the effectiveness of GP15cin in reducing the total levels of indigenous bacteria presented in fermentation mash from different commercial ethanol plants. The exact identities of the indigenous bacteria population in different plants are unknown and are likely highly diverse.
GP15cin described herein were produced by a L. plantarum strain, which was isolated from the indigenous LAB populations present during commercial ethanol fermentation. GP15cin can act towards species and/or strains of similar indigenous LAB populations and thus can be used as an effective control for contaminating LAB. […] Either fermentor or mash cooler mash samples were collected from 6 different commercial ethanol plants on 13 different days from 2012 to 2014. Results of 15 independent tests are shown. […]

[5] = tested on: Lactobacillus fermentum strain 0315-25; test: Batch culture growth inhibition, bacteriocin and phage alone and combined; type: cell-based; settings: 24 h
Description: Bacteriocin alone, bacteriophage alone, and bacteriocin combined with phage were tested against Lactobacillus in batch culture systems. To be specific, logarithmic growth phase cultures of Lactobacillus fermentum strain 0315-25 (OD600 being 0.1) were treated either with single agent at different doses, such as bacteriocin GP15cin alone at different doses (0.1%, 1%, and 10%, v/v), or a phage designated herein as LferInf alone at different MOIs (0.1, 1, and 10), or two agents combined together at different doses, such as 0.1% GP15cin plus LferInf at MOI of 0.1, 0.1% GP15cin plus phage LferInf at MOI of 1, 1% GP15cin plus LferInf at MOI of 0.1, and 1% GP15cin plus phage LferInf at MOI of 1. Culture without any treatment was served as control. LferInf is a bacteriophage isolated from wastewater and found to be effective against a broad host range of Lactobacillus and described in more detail below. The growth of bacteria was monitored for 24 h, and the treatment effects were compared.

[6] = tested on: non-LAB isolates, such as strains of Staphylococcus, Enterobacter, Bacillus, and Clostridium; test: Inhibitory activity spectrum: culture supernatant spotted onto indicator bacterial lawns; type: cell-based
Description: as §1, §2

contaminating LAB = test: Lactic acid and acetic acid levels during laboratory-scale ethanol fermentation; type: cell-based, lactic acid bacteria
From the text: GP15cin described herein were produced by a L. plantarum strain, which was isolated from the indigenous LAB populations present during commercial ethanol fermentation. GP15cin can act towards species and/or strains of similar indigenous LAB populations and thus can be used as an effective control for contaminating LAB. […] Either fermentor or mash cooler mash samples were collected from 6 different commercial ethanol plants on 13 different days from 2012 to 2014. Results of 15 independent tests are shown. […] It is likely that the effects on controlling contaminating bacteria and acids will be even more significant if a higher dose of […] is used. The presented results highlight the feasibility of GP15cin application for control of unwanted bacteria in ethanol and other biofuel industries.

## plantaricin W [GP15cin]
[1]
  activity against its own production host: not active
[2]; LAB genera plus Staphylococcus, Enterobacter, Bacillus, Clostridium
  killing spectrum against a list of bacteria: extremely broad killing spectrum
[2]; LAB isolates from commercial ethanol plants
  killing activity against LAB isolates: broad range killing activity against the vast majority of the LAB isolates
[3]
  pH range of optimal activity: 4-10 pH
[3]; after 2 hours at 120° C.
  loss of activity / heat resistance: not a complete loss of activity
[3]; extreme pH values
  reversibility of activity loss: does not appear to be reversible
[3]; pH 12
  loss of activity: complete loss of activity
[3]; pH values of 1, 2, 3, and 11
  reduction in activity: 50%
[3]; temperature of 12.0° C. (so in the source)
  reduction in activity: 87.5%
[3]; temperatures of 65-100° C.
  reduction in activity: 50%
[4]
  time in which the reduction effect was seen: ≥ 2 h
[4]; mash from 6 commercial ethanol plants, 15 independent tests
  reduction of indigenous contaminating bacteria levels: consistent reduction effects seen in all tests; also recorded: reduced indigenous contaminating bacteria levels in all mash samples
[5]; GP15cin alone at 0.1% v/v
  growth of L. fermentum compared to control: all treatment, except GP15cin used at 0.1%, suppressed the growth
[5]; GP15cin alone at 1% and 10% v/v
  growth of L. fermentum compared to control: suppressed the growth
[6]
  killing activity against non-LAB isolates: showed killing activity
Contaminating LAB
  acetic acid level produced by contaminating LAB: significantly reduced
  lactic acid level produced by contaminating LAB: significantly reduced
